Source: patent publication US9586931B2 (Merck Sharp & Dohme Corp., priority 2012, dated 2017)

biological target: T1, recombinant human GST-Syk (Homo sapiens, UniProt P43405); assay: Homogeneous Time-Resolved Fluorescence (HTRF) assay for the recombinant human Syk enzyme; type: biochemical; conditions: recombinant human GST-Syk 5 pM, ATP 25 μM, 10-dose titration 10 μM to 0.508 nM; read-out: rhSYK Activity IC50
T1 construct: purchased Carna Biosciences 08-176
Outline: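 GST-hSyk fusion protein phosphorylated a peptide for 45 min at room temperature. The reaction was quenched with 2 nM Eu-anti-phosphotyrosine antibody and 70 nM SA-APC in 15 mM Tris pH 7.5, 40 mM EDTA, 0.01% Tween 20. The HTRF signal was read after 30 min.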

Compound | IC50 [nM]
Cc1cc(Nc2nccc(C(F)(F)F)n2)cc(-c2cn(CC(C)(O)C(C)(C)O)nn2)c1 (stereo not drawn) [Example 21.19, 2,3-dimethyl-1-[4-(3-methyl-5-{[4-(trifluoromethyl)pyrimidin-2-yl]amino}phenyl)-1H-1,2,3-triazol-1-yl]butane-2,3-diol] | 29.3
Cc1cc(Nc2cc(C(F)(F)F)ccn2)nc(-c2cn(C3CCCC(O)C3O)nn2)c1 (stereo not drawn) [Example 10.11, 3-[4-(4-methyl-6-{[4-(trifluoromethyl)pyridin-2-yl]amino}pyridin-2-yl)-1H-1,2,3-triazol-1-yl]cyclohexane-1,2-diol] | 3.3
Cc1cc(Nc2nccc(C3CC3)n2)cc(-c2cn(CC(C)(O)C(C)(C)O)nn2)c1 (stereo not drawn) [Example 21.26, 1-(4-{3-[(4-cyclopropylpyrimidin-2-yl)amino]-5-methylphenyl}-1H-1,2,3-triazol-1-yl)-2,3-dimethylbutane-2,3-diol] | 12.7
Cc1cc(Nc2nccc(C(F)F)n2)cc(-c2cn(C3CCCCC3(C)O)nn2)c1 (single isomer, unassigned) [Example 7.19, 2-[4-(3-{[4-(difluoromethyl)pyrimidin-2-yl]amino}-5-methylphenyl)-1H-1,2,3-triazol-1-yl]-1-methylcyclohexanol] | 16.2
CC(O)(CO)Cn1cc(-c2cccc(Nc3nccc(C(F)(F)F)n3)c2)nn1 (single isomer, unassigned) [Example 21.6, 2-methyl-3-[4-(3-{[4-(trifluoromethyl)pyrimidin-2-yl]amino}phenyl)-1H-1,2,3-triazol-1-yl]propane-1,2-diol] | 44.6
Cc1cc(Nc2cc(C3CC3)ccn2)nc(-c2cn(C(C)c3ccc(C(=O)O)cc3)nn2)c1 (stereo not drawn) [Example 2.11, 4-[1-(4-{6-[(4-cyclopropylpyridin-2-yl)amino]-4-methylpyridin-2-yl}-1H-1,2,3-triazol-1-yl)ethyl]benzoic acid] | 6.4
Cc1cc(Nc2cc(C(F)F)ccn2)nc(-c2cn(CC3CNC(=O)C3)nn2)c1 (single isomer, unassigned) [Example 24.1, 4-((4-(6-((4-(difluoromethyl)pyridin-2-yl)amino)-4-methylpyridin-2-yl)-1H-1,2,3-triazol-1-yl)methyl)pyrrolidin-2-one] | 12.3
Cc1cc(Nc2nccc(C(F)F)n2)cc(-c2cn(C3CCCC(O)C3O)nn2)c1 (single isomer, unassigned) [Example 25.1, 3-(4-(3-((4-(Difluoromethyl)pyrimidin-2-yl)amino)-5-methylphenyl)-1H-1,2,3-triazol-1-yl)cyclohexane-1,2-diol] | 9.5
Cc1cc(Nc2ncc(F)c(C(F)F)n2)cc(-c2cn(CC3OC(=O)NC3C)nn2)c1 (single isomer, unassigned) [Example 7.38, 5-{[4-(3-{[4-(difluoromethyl)-5-fluoropyrimidin-2-yl]amino}-5-methylphenyl)-1H-1,2,3-triazol-1-yl]methyl}-4-methyl-1,3-oxazolidin-2-one] | 33.1
Cc1cc(Nc2cc(C(F)(F)F)ccn2)nc(-c2cn(CC(O)C(C)C)nn2)c1 (stereo not drawn) [Example 4.24, 3-methyl-1-[4-(4-methyl-6-{[4-(trifluoromethyl)pyridin-2-yl]amino}pyridin-2-yl)-1H-1,2,3-triazol-1-yl]butan-2-ol] | 8.3
COc1ccc(OC)c(C(O)C(C)NC(=O)C(C)n2cc(-c3cc(C)cc(Nc4cc(C(F)(F)F)ccn4)n3)nn2)c1 (stereo not drawn) [Example 1.38, N-[2-(2,5-dimethoxyphenyl)-2-hydroxy-1-methylethyl]-2-[4-(4-methyl-6-{[4-(trifluoromethyl)pyridin-2-yl]amino}pyridin-2-yl)-1H-1,2,3-triazol-1-yl]propanamide] | 635
Cc1cc(Nc2nccc(C(F)(F)F)n2)cc(-c2cn([C@@H]3CCC[C@H](O)C3)nn2)c1 (racemic) [Example 17.1, Racemic cis-3-(4-(3-methyl-5-((4-(trifluoromethyl)pyrimidin-2-yl)amino)phenyl)-1H-1,2,3-triazol-1-yl)cyclohexanol] | 55.4
